Results published in patent US20050169981A1, “Solid compositions comprising ramipril” (priority 2001, published 2005).

Assay: Stability of capsules stored at 50° C. for one week, degradation products by HPLC
Format: physicochemical
Settings: starting ramipril, before encapsulation and storage
Experimental: For each of the 4 examples, the ingredients in the proportions shown were mixed together. The powder mixture was then passed through a #60 screen and mixed again. The powder mixture was then filled into size 4 two-piece hard gelatin capsules as a net fill of 150 mg per capsules, so that each capsule contained 1.25 mg of ramipril. Capsules of each of the examples were stored at 50° C. for one week and then tested by a high-performance liquid chromatographic method (HPLC) to determine the degradation products as a percentage of the ramipril content.

CCOC(=O)[C@H](CCc1ccccc1)N[C@@H](C)C(=O)N1[C@H](C(=O)O)C[C@@H]2CCC[C@@H]21 [ramipril, Ramipril]
level of degradation products in the ramipril used to make the capsules: 0.29%
